Measured values: PMC12070228, “Investigations of Enteric-Coated Tablet Propyl Gallate-Induced Nephrotoxicity in Beagles as well as Human and Dog Renal Proximal Tubule Epithelial Cells” (ACS Pharmacology & Translational Science, 2025)

Assays:
[1] = PG pharmacokinetics in healthy volunteers, clinical study NCT03362593 (validated LC-MS/MS); format: in vivo; details: human, plasma, oral EC MEDI7219 tablets, PG 200, 400 or 800 mg
Description: The total run time was 5.5 min.
The targeted quantitation of PG and phase-I/II metabolites was conducted using peak area ratio of analytes and internal standards in MultiQuant software (SCIEX).
Healthy volunteers participating in the clinical study NCT03362593 received single or multiple ascending doses of MEDI7219 tablets. Healthy volunteers received EC MEDI7219 tablets containing 200, 400, or 800 mg PG per tablet. The clinical plasma samples were analyzed using the validated method described above. […] After oral administration of tablets containing PG, the T max of PG was reached around 3–4 h postdose.

beagles = assay: Follow-up 4-week study 003: EC tablets vs PG alone in gelatin capsule, nephrotoxicity; format: in vivo, beagle dog; details: dogs, target PG 200 mg/kg/day once daily for 26 days, data not shown

CCCOC(=O)c1cc(O)c(O)c(O)c1 [PG, propyl gallate]
Tmax [1]: 3 to 4 h | Nephrotoxicity / kidney injury (beagles): did not result in nephrotoxicity
